Assay results published in patent US6114517A, “Methods of modulating tumor necrosis factor α-induced expression of cell adhesion molecules” (Isis Pharmaceuticals Inc., priority 1998, dated 2000).
One block for each substance: values may come before it.

How the values were obtained:
Type in all cases: cell-based, human
JNK1 = assay: TNF-α-mediated JNK1 kinase activity, isoform-specific JNK assay; conditions: FIG. 5
Protocol: (§1) To examine the effect of the c-raf antisense oligonucleotide (ISIS 12854, SEQ ID NO. 2) on ERK, JNK, and p38 MAPK activities stimulated by TNF-α, in vitro kinase assays were performed on extracts derived from cells treated with ISIS 12854 (SEQ ID NO. 2). Cells were treated with oligonucleotides and induced with cytokines. At the indicated time, cells were lysed on ice and debris was removed by centrifugation. Protein concentration was measured by Bradford assay. Lysate containing equal amounts of protein were incubated with primary antibody-agarose conjugates (ERK and p38 assay; Santa Cruz Biotechnology, Santa Cruz, Calif.), or with JNK1-specific or JNK2-specific antibodies (JNK assay; Upstate Biotechnology, Lake Placid, N.Y.), overnight at 4° C.
(§2) For isoform-specific JNK assays, anti-rabbit IgG conjugated with agarose beads was added to cell extracts following JNK antibody treatment and wash steps and incubated for 2 hours at 4° C. After washing with lysis buffer and kinase buffer, the pelleted beads were incubated with 1 μg of substrate (Elk-1 for ERK, ATF-2 for p38, and c-Jun for JNK MAPK) and 100 […] of ATP for 20 minutes at 37° C. MAPK and JNK assay kits, ATF-2 fusion protein, and antibodies for ATF-2, Elk-1 phospho-ATF-2 were purchased from New England BioLabs (Boston, Mass.). Reactions were terminated by the addition of 3×SDS sample buffer followed by boiling. […]

E-selectin = assay: TNF-α-induced E-selectin cell surface expression in HMVEC, flow cytometry
Protocol: (§3) Human dermal microvascular cells (HMVEC-d; Clonetics, San Diego, Calif.) were cultivated in endothelial basal media (EBM, Clonetics) supplemented with 10% fetal bovine serum (HyClone, Logan, Utah). Cells were grown in 100 mm petri dishes until 70-80% confluent, then washed with PBS and OPTI-MEM (Life Technologies, Inc., Gaithersburg, Md.). The cells were then incubated in the presence of OPTI-MEM and […] LIPOFECTIN (a 1:1 (w/w) liposome formulation of the cationic lipid N-[1-(2,3-dioleyloxy)propyl]-n,n,n-trimethylammonium chloride (DOTMA), and dioleoyl phosphotidylethanolamine (DOPE) in membrane filtered water (Life Technologies, Gaithersburg, Md.), per 100 nM of oligonucleotide followed by addition of oligonucleotide at the appropriate concentrations.
(§4) The effect of c-raf and Ha-ras antisense oligonucleotide treatment on the induction of E-selectin by TNF-α was examined. HMVEC cells were treated with either the c-raf or Ha-ras antisense compound under dose-response conditions or over time at a single dose level followed by stimulation of E-selectin expression by TNF-α for 5 hours. The cell surface expression of E-selectin was determined by flow cytometry analysis. Following oligonucleotide treatment, cells were detached from the plates and analyzed for surface expression of cell adhesion molecules using a Becton Dickinson (San Jose, Calif.) FACScan. TNF-α and FITC conjugated antibody for E-selectin were obtained from R & D Systems (Minneapolis, Minn.). PE-conjugated antibody for ICAM-1 was obtained from Pharmingen (San Diego, Calif.). VCAM-1 antibody was obtained from Santa Cruz Biotechnology, Santa Cruz, Calif. Cell surface expression was calculated using the mean value of fluorescence intensity using 3,000-5,000 cells stained with the appropriate antibody for each sample and time point. Results are expressed as percentage of control (cell surface expression induced by TNF-α in cells that were not treated with oligonucleotides) based upon mean fluorescence intensity.
The effects of c-raf, Ha-ras, and a E-selectin antisense oligonucleotide on TNF-α-induced E-selectin cell surface expression under kinetic conditions were examined. […] To test this, cells were treated, separately, with antisense oligonucleotides to E-selectin, ICAM-1 and VCAM-1 and allowed to recover prior to TNF-α treatment. […] E-selectin cell surface expression was measured by flow cytometry analysis after 5 hours of TNF-A treatment.

JNK1 mRNA = JNK1 mRNA expression by Northern blot; conditions: at the concentration tested, FIG. 4
Protocol: as §3
(§5) For determination of mRNA levels by Northern blot, total RNA was prepared from cells by the guanidinium isothiocyanate procedure or by the Qiagen RNAEASY method (Qiagen, Santa Clarita, Calif.) at the indicated times after initiation of oligonucleotide treatment. Northern blot analysis was performed as described in Current Protocols in Molecular Biology (Ausubel, F. M., et al., (eds), 1987, Greene Publishing Assoc. and Wiley Interscience, New York). […] RNA was quantified and normalized to G3PDH mRNA levels using a Molecular Dynamic PHOSPHORIMAGER (Sunnyvale, Calif.). […]

ICAM-1 mRNA = assay: TNF-α-induced ICAM-1 mRNA, Northern blot; conditions: 48 hrs recovery, TNF-α two to three hours before RNA analysis
Protocol: (§6) For determination of mRNA levels by Northern blot, total RNA was prepared from cells by the guanidinium isothiocyanate procedure or by the Qiagen RNAEASY method (Qiagen, Santa Clarita, Calif.) at the indicated times after initiation of oligonucleotide treatment. Northern blot analysis was performed as described in Current Protocols in Molecular Biology (Ausubel, F. M., et al., (eds), 1987, Greene Publishing Assoc. and Wiley Interscience, New York). A glyceraldehyde 3-phosphate dehydrogenase (G3PDH) probe was purchased from Clontech (Palo Alto, Calif., Catalog Number 9805-1). RNA was quantified and normalized to G3PDH mRNA levels using a Molecular Dynamic PHOSPHORIMAGER (Sunnyvale, Calif.).
(§7) Northern blot analysis was carried out to examine whether c-raf and Ha-ras antisense oligonucleotides inhibit the induction of cell adhesion molecules at the transcriptional level. Cells were treated with c-raf (ISIS 12854, SEQ ID NO. 2) or Ha-ras (ISIS 15168, SEQ ID NO. 4) antisense oligonucleotides and allowed to recover for 48 hrs. TNF-α was added two to three hours prior to RNA analysis and Northern blotting was performed with probes specific for E-selectin, ICAM-1, and VCAM-1. The probe for E-selectin was obtained by PCR amplification using primers directed to HUMELAM1A (Genbank Accession No. M24736; SEQ ID NO. 18).

VCAM-1 = assay: TNF-α-induced VCAM-1 cell surface expression in HMVEC, flow cytometry
Protocol: as §3
as §4, with “intensity. Basal expression of E-selectin and VCAM-1 is undetectable in the absence of TNF-α whereas a low level of basal expression is detectable for ICAM-1.” for “intensity.”
(§8) TNF-α induction of ICAM-1 and VCAM-1 in cells treated with c-raf and Ha-ras antisense oligonucleotides was also examined to further define the roles of c-raf and Ha-ras in cytokine signaling. Oligonucleotides were tested, using flow cytometry analysis, as described in Example 4. Results are shown in Table 6 (ICAM-1) and Table 7 (VCAM-1).

VCAM-1 mRNA = assay: TNF-α-induced VCAM-1 mRNA, Northern blot; conditions: 48 hrs recovery, TNF-α two to three hours before RNA analysis
Protocol: as §6, §7

c-raf mRNA = c-raf mRNA levels by Northern blot in HMVEC
Protocol: as §3, §6
ISIS 12854 (SEQ ID NO. 2) is a 2'-O-methoxyethyl mixed backbone chimeric antisense oligonucleotide designed to hybridize with 3'-untranslated sequences contained within human c-raf mRNA. To determine whether this antisense oligonucleotide is effective as a c-raf inhibitor in endothelial cells, human dermal microvascular cells (HMVEC) were treated with ISIS 12854 (SEQ ID NO. 2) as described in Example 2. C-raf mRNA and protein expression was examined by northern and Western blot analysis. The c-raf cDNA probe was generated from the plasmid, p627 (American Type Culture Collection, Manassas, Va.; catalog #41050), following the supplied instructions. The c-raf antibody was obtained from Transduction Laboratories, Inc. (Lexington, Ky.).

E-selectin mRNA = assay: TNF-α-induced E-selectin mRNA, Northern blot; conditions: 48 hrs recovery, TNF-α two to three hours before RNA analysis
Protocol: as §6, §7

ICAM-1 = assay: TNF-α-induced ICAM-1 cell surface expression in HMVEC, flow cytometry
Protocol: as §3
as §4, with “intensity. Basal expression of E-selectin and VCAM-1 is undetectable in the absence of TNF-α whereas a low level of basal expression is detectable for ICAM-1.” for “intensity.”
as §8

JNK2 = assay: TNF-α-mediated JNK2 kinase activity, isoform-specific JNK assay; conditions: FIG. 5
Protocol: as §1, §2

JNK2 mRNA = JNK2 mRNA expression by Northern blot; conditions: at the concentration tested, FIG. 4
Protocol: as §3, §5

[1] = Table 9, JNK antisense series, 20 nM
[2] = Table 9, JNK antisense series, 50 nM
[3] = Table 9, JNK antisense series, 100 nM
[4] = time course, 12 h/20 h after oligonucleotide treatment, TNF-α 5 hours
[5] = time course, 48 h after oligonucleotide treatment, TNF-α 5 hours
[6] = time course, 72 h after oligonucleotide treatment, TNF-α 5 hours

- TNF-α-mediated induction of JNK1 activity (JNK1): effectively reduced
Substance: CoToCoToCoTsGsTsAsGsGsCsCsCsGsCoToToGoG [ISIS 15347]
- % Cell Surface Expression (E-selectin) (E-selectin; [1]): 89%
- % Cell Surface Inhibition (E-selectin) (E-selectin; [1]): 11%
- % Cell Surface Expression (E-selectin) (E-selectin; [2]): 84%
- % Cell Surface Inhibition (E-selectin) (E-selectin; [2]): 16%
- % Cell Surface Expression (E-selectin) (E-selectin; [3]): 82%
- % Cell Surface Inhibition (E-selectin) (E-selectin; [3]): 18%
- JNK1 mRNA expression (JNK1 mRNA): nearly complete inhibition

Substance: AoToGoCoAoTsTsCsTsGsCsCsCsCsCoAoAoGoGoA [ISIS 15727, reference compound]
- % mRNA Expression (ICAM-1) (ICAM-1 mRNA): 107%
- % Cell Surface Expression (VCAM-1) (VCAM-1; 20 nM): 69%
- % Cell Surface Inhibition (VCAM-1) (VCAM-1; 20 nM): 31%
- % Cell Surface Expression (VCAM-1) (VCAM-1; 50 nM): 81%
- % Cell Surface Inhibition (VCAM-1) (VCAM-1; 50 nM): 19%
- % Cell Surface Expression (VCAM-1) (VCAM-1; 100 nM): 74%
- % Cell Surface Inhibition (VCAM-1) (VCAM-1; 100 nM): 26%
- % Cell Surface Expression (E-selectin) (E-selectin; 25 nM, TNF-α for 5 hours, % of control): 119%
- % Cell Surface Inhibition (E-selectin) (E-selectin; 75 nM, TNF-α for 5 hours): 6%
- % Cell Surface Expression (E-selectin) (E-selectin; 75 nM, TNF-α for 5 hours, % of control): 94%
- % Cell Surface Expression (E-selectin) (E-selectin; 150 nM, TNF-α for 5 hours, % of control): 106%
- % Cell Surface Expression (E-selectin) (E-selectin; [1]): 137%
- % Cell Surface Expression (E-selectin) (E-selectin; [2]): 128%
- % Cell Surface Expression (E-selectin) (E-selectin; [3]): 124%
- effect on E-selectin induction (E-selectin; dose response, HMVEC): little to no effect
- % Cell Surface Expression (E-selectin) (E-selectin; [4]): 93%
- % Cell Surface Inhibition (E-selectin) (E-selectin; [4]): 7%
- % Cell Surface Expression (E-selectin) (E-selectin; [5]): 106%
- % Cell Surface Expression (E-selectin) (E-selectin; [6]): 81%
- % Cell Surface Inhibition (E-selectin) (E-selectin; [6]): 19%
- % mRNA Expression (VCAM-1) (VCAM-1 mRNA): 113%
- effect on c-raf mRNA (c-raf mRNA): did not exhibit any effect
- % mRNA Expression (c-raf) (c-raf mRNA; 100 nM): 96%
- % mRNA Inhibition (c-raf) (c-raf mRNA; 100 nM): 4%
- % mRNA Expression (c-raf) (c-raf mRNA; 200 nM): 135%
- % mRNA Expression (E-selectin) (E-selectin mRNA): 103%
- % Cell Surface Expression (ICAM-1) (ICAM-1; 20 nM): 97%
- % Cell Surface Inhibition (ICAM-1) (ICAM-1; 20 nM): 3%
- % Cell Surface Expression (ICAM-1) (ICAM-1; 50 nM): 89%
- % Cell Surface Inhibition (ICAM-1) (ICAM-1; 50 nM): 11%
- % Cell Surface Expression (ICAM-1) (ICAM-1; 100 nM): 87%
- % Cell Surface Inhibition (ICAM-1) (ICAM-1; 100 nM): 13%

- TNF-α-mediated induction of JNK2 activity (JNK2): effectively reduced
Substance: GoToCoCoGoGsGsCsCsAsGsGsCsCsAsAoAoGoToC [ISIS 15354]
- % Cell Surface Expression (E-selectin) (E-selectin; [1]): 32%
- % Cell Surface Inhibition (E-selectin) (E-selectin; [1]): 68%
- % Cell Surface Expression (E-selectin) (E-selectin; [2]): 29%
- % Cell Surface Inhibition (E-selectin) (E-selectin; [2]): 71%
- % Cell Surface Expression (E-selectin) (E-selectin; [3]): 33%
- % Cell Surface Inhibition (E-selectin) (E-selectin; [3]): 67%
- JNK2 mRNA expression (JNK2 mRNA): nearly complete inhibition
- JNK1 mRNA expression (JNK1 mRNA): without affecting

Substance: GsAsAsGsTsCsAsGsCsCsAsAsGsAsAsCsAsGsCsT (GAAGTCAGCCAAGAACAGCT; all phosphorothioate, sugars by position and methylation of C not given here) [ISIS 11928, fully phosphorothioated oligonucleotide with all 2'-methoxyethoxy nucleotides except a 3' terminal 2'-deoxy nucleotide, antisense to E-selectin]
- block of E-selectin cell surface expression (E-selectin; concentrations as low as 20 nM, 12 hours following treatment): 80%
- % Cell Surface Expression (E-selectin) (E-selectin; [4]): 22%
- % Cell Surface Inhibition (E-selectin) (E-selectin; [4]): 78%
- % Cell Surface Expression (E-selectin) (E-selectin; [5]): 29%
- % Cell Surface Inhibition (E-selectin) (E-selectin; [5]): 71%
- % Cell Surface Expression (E-selectin) (E-selectin; [6]): 32%
- % Cell Surface Inhibition (E-selectin) (E-selectin; [6]): 68%
